Experimental data published in ChEMBL document CHEMBL1201862, “PubChem BioAssay data set” (2004).
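Step 1: Grow cells in 96-well plates. Step 2: Expose to compound for 48 hours at 5 concentrations. Step 3: Interpolate endpoints linearly; if unreached, use highest concentration. GI50 marks 50% less growth.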 Calls of active or inactive are those of the source. Cut-off read from the data, not from the text of the source: active = GI50 up to about 1.1 µM and inactive = higher.

Assays:
Assay in all cases: growth of human tumour cells (NCI), 48 h
HT-29 = tested on: HT-29
SNB-19 = tested on: SNB-19
NCI-H460 = tested on: NCI-H460
LOX IMVI = tested on: LOX IMVI
SNB-75 = tested on: SNB-75
TK-10 = tested on: TK-10
SK-MEL-5 = tested on: SK-MEL-5
A498 = tested on: A498
RPMI-8226 = tested on: RPMI-8226
T47D = tested on: T47D
UACC-257 = tested on: UACC-257
HCT-116 = tested on: HCT-116
RXF 393 = tested on: RXF 393
SR = tested on: SR
M14 = tested on: M14
PC-3 = tested on: PC-3
SK-OV-3 = tested on: SK-OV-3
NCI-H226 = tested on: NCI-H226
Hs-578T = tested on: Hs-578T
NCI/ADR-RES = tested on: NCI/ADR-RES
DU-145 = tested on: DU-145
HOP-92 = tested on: HOP-92
COLO 205 = tested on: COLO 205
BT-549 = tested on: BT-549
SN12C = tested on: SN12C
MCF7 = tested on: MCF7
SF-539 = tested on: SF-539
U-251 = tested on: U-251
SK-MEL-2 = tested on: SK-MEL-2
SK-MEL-28 = tested on: SK-MEL-28
MOLT-4 = tested on: MOLT-4
CCRF-CEM = tested on: CCRF-CEM
EKVX = tested on: EKVX
UACC-62 = tested on: UACC-62
786-0 = tested on: 786-0
MDA-MB-231 = tested on: MDA-MB-231
NCI-H522 = tested on: NCI-H522
OVCAR-3 = tested on: OVCAR-3
CAKI-1 = tested on: CAKI-1
IGROV-1 = tested on: IGROV-1
SF-295 = tested on: SF-295
ACHN = tested on: ACHN
NCI-H23 = tested on: NCI-H23
HCC 2998 = tested on: HCC 2998
HOP-62 = tested on: HOP-62
OVCAR-4 = tested on: OVCAR-4
MDA-N = tested on: MDA-N
OVCAR-8 = tested on: OVCAR-8
HCT-15 = tested on: HCT-15
KM12 = tested on: KM12
MDA-MB-435 = tested on: MDA-MB-435
SW-620 = tested on: SW-620
OVCAR-5 = tested on: OVCAR-5
UO-31 = tested on: UO-31
A549 = tested on: A549
HL-60 = tested on: HL-60
SF-268 = tested on: SF-268
K562 = tested on: K562

Measured: GI50

CCCCCCCCCCCCCCCC[N+](C)(C)Cc1ccc(F)cc1
active: RPMI-8226 1.06 µM | RXF 393 1.11 µM | PC-3 1.11 µM | CCRF-CEM 0.771 µM | NCI-H522 0.724 µM | IGROV-1 0.383 µM | HL-60 0.184 µM
8.43 µM: HCT-15
inactive: HT-29 1.26 µM | SNB-19 1.66 µM | NCI-H460 1.44 µM | LOX IMVI 1.47 µM | SNB-75 1.39 µM | TK-10 1.48 µM | SK-MEL-5 1.75 µM | A498 26.2 µM | T47D 3.33 µM | UACC-257 1.79 µM | HCT-116 1.48 µM | SR 1.54 µM | M14 1.6 µM | SK-OV-3 2.2 µM | NCI-H226 2.15 µM | Hs-578T 1.89 µM | NCI/ADR-RES 18.1 µM | DU-145 3.68 µM | HOP-92 1.27 µM | COLO 205 1.61 µM | BT-549 2.37 µM | SN12C 1.62 µM | MCF7 1.61 µM | SF-539 1.29 µM | U-251 1.43 µM | SK-MEL-2 1.62 µM | SK-MEL-28 3.08 µM | MOLT-4 1.46 µM | EKVX 2 µM | UACC-62 1.67 µM | 786-0 1.47 µM | MDA-MB-231 1.32 µM | OVCAR-3 1.94 µM | CAKI-1 2.7 µM | SF-295 2.37 µM | ACHN 3.07 µM | NCI-H23 2.16 µM | HCC 2998 1.47 µM | HOP-62 1.5 µM | OVCAR-4 1.55 µM | MDA-N 1.96 µM | OVCAR-8 1.51 µM | KM12 1.26 µM | MDA-MB-435 1.84 µM | SW-620 1.7 µM | OVCAR-5 1.83 µM | UO-31 6.84 µM | A549 2.67 µM | SF-268 1.56 µM | K562 1.26 µM

CC1=C(C(=O)NNC(=O)C(N)=O)CC(C(=O)NNC(=O)C(N)=O)=C(C)N1
inactive: HT-29 > 100 µM | SNB-19 > 100 µM | NCI-H460 > 100 µM | LOX IMVI > 100 µM | SNB-75 > 100 µM | TK-10 > 100 µM | SK-MEL-5 > 100 µM | A498 > 100 µM | RPMI-8226 > 100 µM | T47D > 100 µM | UACC-257 > 100 µM | HCT-116 > 100 µM | RXF 393 > 100 µM | SR > 100 µM | M14 > 100 µM | PC-3 > 100 µM | SK-OV-3 > 100 µM | NCI-H226 > 100 µM | Hs-578T > 100 µM | NCI/ADR-RES > 100 µM | DU-145 > 100 µM | HOP-92 > 100 µM | COLO 205 > 100 µM | BT-549 > 100 µM | SN12C > 100 µM | MCF7 > 100 µM | SF-539 > 100 µM | U-251 > 100 µM | SK-MEL-2 > 100 µM | SK-MEL-28 > 100 µM | MOLT-4 > 100 µM | CCRF-CEM > 100 µM | EKVX > 100 µM | UACC-62 > 100 µM | 786-0 > 100 µM | MDA-MB-231 > 100 µM | NCI-H522 > 100 µM | OVCAR-3 > 100 µM | CAKI-1 > 100 µM | IGROV-1 > 100 µM | SF-295 > 100 µM | ACHN > 100 µM | NCI-H23 > 100 µM | HCC 2998 > 100 µM | HOP-62 > 100 µM | OVCAR-4 > 100 µM | MDA-N > 100 µM | OVCAR-8 > 100 µM | KM12 > 100 µM | MDA-MB-435 > 100 µM | SW-620 > 100 µM | OVCAR-5 > 100 µM | UO-31 > 100 µM | A549 > 100 µM | HL-60 47.4 µM | SF-268 > 100 µM | K562 > 100 µM
> 100 µM: HCT-15
